According to US11021481B2, “Substituted isoindolin-1-ones and 2,3-dihydro-1h-pyrrolo[3,4-c]pyridin-1-ones as HPK1 antagonists” (Nimbus Saturn, Inc., priority 2019, dated 2021):
pIC50: −log10 of the molar value.

These molecules were tested against HPK1 (Homo sapiens (Human), UniProt Q92918) (assay: HPK1 biochemical enzyme assay (microfluidic mobility shift assay)). Details: 1.5 nM HPK1, ATP 1 mM final, 30 min preincubation, 60 min at RT, Caliper EZ Reader; read-out: HPK1 1000UMATP caliper IC50.
Chain of HPK1 (Q92918 whole entry): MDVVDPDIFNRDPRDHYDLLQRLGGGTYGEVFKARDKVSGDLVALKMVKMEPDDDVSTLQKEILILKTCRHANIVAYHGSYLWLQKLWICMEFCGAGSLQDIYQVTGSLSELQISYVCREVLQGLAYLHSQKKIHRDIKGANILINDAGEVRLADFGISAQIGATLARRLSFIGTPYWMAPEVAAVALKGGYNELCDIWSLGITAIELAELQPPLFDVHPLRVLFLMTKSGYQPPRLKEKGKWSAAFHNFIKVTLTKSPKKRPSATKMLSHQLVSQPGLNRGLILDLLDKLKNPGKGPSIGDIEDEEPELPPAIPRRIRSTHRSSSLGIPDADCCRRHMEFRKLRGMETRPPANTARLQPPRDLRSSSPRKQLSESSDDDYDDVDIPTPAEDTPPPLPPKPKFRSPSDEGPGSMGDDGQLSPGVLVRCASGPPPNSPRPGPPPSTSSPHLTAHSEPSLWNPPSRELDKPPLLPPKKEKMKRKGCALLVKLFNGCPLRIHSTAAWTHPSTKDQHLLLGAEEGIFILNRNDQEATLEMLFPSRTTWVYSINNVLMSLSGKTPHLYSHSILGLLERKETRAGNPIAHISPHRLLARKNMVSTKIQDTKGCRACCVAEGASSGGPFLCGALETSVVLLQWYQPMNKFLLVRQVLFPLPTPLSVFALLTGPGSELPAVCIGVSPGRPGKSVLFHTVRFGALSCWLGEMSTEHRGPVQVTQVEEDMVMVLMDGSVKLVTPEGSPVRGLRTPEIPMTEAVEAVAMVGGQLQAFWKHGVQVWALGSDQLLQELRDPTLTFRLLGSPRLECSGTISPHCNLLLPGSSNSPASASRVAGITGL
How it was run: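 Ten-point compound titrations (top 3 μM final) preincubated 30 min with HPK1 and substrate, then reaction started with 1 mM ATP and 1 μM substrate, 5 mM MgCl2. After 60 min at RT, reaction terminated and product measured by microfluidic mobility shift.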
For `CC(C)(O)[C@@H]1CN(c2ccc(Nc3ccc(-c4cnc5cc(C(F)F)ccn45)c4c3C(=O)NC4)nc2)CCO1` [I-492, 4-[7-(difluoromethyl)-imidazo[1,2-a]pyridin-3-yl]-7-[[5-[(2S)-2-(1-hydroxy-1-methyl-ethyl)morpholin-4-yl]-2-pyridyl]amino]isoindolin-1-one], the pIC50 was over 7.00. Molecule `Cn1ccc2c(-c3ncc(Nc4cccc(N5CCC[C@@H](N)C5)n4)c4c3CNC4=O)ccnc21` [I-231, 7-[[6-[(3R)-3-amino-1-piperidyl]-2-pyridyl]-amino]-4-(1-methylpyrrolo [2,3-b]pyridin-4-yl)-2,3-dihydropyrrolo [3,4-c]pyridin-1-one] has a pIC50 of over 7.00. With `O=C1NCc2c(-c3cnc4cc(F)ccn34)ccc(Nc3ccc([C@H]4CCOC4)c(CN4CCC4)n3)c21` [I-756, (R)-7-((6-(azetidin-1-ylmethyl)-5-(tetrahydrofuran-3-yl)pyridin-2-yl)amino)-4-(7-fluoroimidazo [1,2-a]pyridin-3-yl)isoindolin-1-one] the pIC50 was over 7.00. For `Cn1cc(-c2ccc(Nc3ccc(N4CCC(O)CC4)cn3)c3c2CNC3=O)c2ccnnc21` [I-374, 7-((5-(4-hydroxy-piperidin-1-yl)pyridin-2-yl)amino)-4-(7-methyl-7H-pyrrolo[2,3-c]pyridazin-5-yl)isoindolin-1-one], the pIC50 was over 7.00. “7-[[5-(4-hydroxy-1- piperidyl)-2-pyridyl] amino]-4-imidazo[1,2- a]pyridin-3-yl- isoindolin-1-one [I-125]” was tested, and the pIC50 was over 7.00. `C[C@@H]1C[C@@H](O)CCN1c1ccc(Nc2ccc(-c3cnc4cnccn34)c3c2C(=O)NC3)nc1` [I-351, 7-((5-((2R,4S)-4-hydroxy-2-methylpiperidin-1-yl)pyridin-2-yl)amino)-4-(imidazo[1,2-a]pyrazin-3-yl)isoindolin-1-one] showed a pIC50 of over 7.00. Molecule `Cc1cc(Nc2ccc(N3CCC(O)CC3)cn2)c2c(c1-c1cnc3cc(F)ccn13)CNC2=O` [I-389, 4-(7-fluoroimidazo [1,2-a]pyridin-3-yl)-7-((5-(4-hydroxypiperidin-1-yl)pyridin-2-yl)amino)-5-methylisoindol in-1-one] has a pIC50 of over 7.00. For `COCC1CN(c2ccc(Nc3ccc(-c4cnc5cnccn45)c4c3C(=O)NC4)nc2)CCO1` (stereo in doubt) [I-333, (S)-4-(imidazo[1,2-a]pyrazin-3-yl)-7-((5-(2-(methoxymeth-yl)morpholino)-pyridin-2-yl)amino)isoin-dolin-1-one], the pIC50 was over 7.00.
